What was measured:
[1] = Water-solubility of human C-peptide; type: physicochemical; settings: observed when preparing formulations; phase-separation methods gave high losses of active substance
[2] = cited from earlier work

water-solubility [1]: strong water-solubility
Compound: CC(C)C[C@H](NC(=O)[C@H](C)NC(=O)[C@H](CC(C)C)NC(=O)[C@@H]1CCCN1C(=O)[C@H](CCC(N)=O)NC(=O)[C@H](CC(C)C)NC(=O)[C@H](CO)NC(=O)CNC(=O)[C@H](C)NC(=O)CNC(=O)[C@@H]1CCCN1C(=O)CNC(=O)CNC(=O)CNC(=O)[C@H](CC(C)C)NC(=O)[C@H](CCC(=O)O)NC(=O)[C@@H](NC(=O)[C@H](CCC(N)=O)NC(=O)CNC(=O)[C@@H](NC(=O)[C@H](CCC(N)=O)NC(=O)[C@H](CC(C)C)NC(=O)[C@H](CC(=O)O)NC(=O)[C@H](CCC(=O)O)NC(=O)[C@H](C)NC(=O)[C@@H](N)CCC(=O)O)C(C)C)C(C)C)C(=O)N[C@@H](CCC(=O)O)C(=O)NCC(=O)N[C@@H](CO)C(=O)N[C@@H](CC(C)C)C(=O)N[C@@H](CCC(N)=O)C(=O)O [C-peptide]
half-life of plasma in humans [2]: about 40 minutes
